Results reported in US4347319A, “Microbiological epoxidation process” (priority 1980, dated 1982).
“Also recorded” adds a separate entry of the source.

Experiments:
Type in all cases: biochemical
[1] = tested on: P(40) particulate fraction of Methylosinus sp. (CRL-15, NRRL B-11,202); assay: Effect of inhibitors on propylene epoxidation and methane hydroxylation; conditions: inhibitor 10^-3 M; P(40) fraction
Experimental: (§1) The oxidation of methane and propylene by particulate [(P)40 and (P)80] fractions and soluble [S(80)] fraction was measured at 30° C. by estimating the production of methanol and propylene oxide, respectively. The reaction mixtures contained in […]: 150 mM potassium phosphate buffer, pH 7.0 containing 5 mM MgCl2 b, 0.6 ml; 10μ moles NADH, and cellular fraction.
(§2) Reaction mixtures were contained in 10 ml vials at 4° C. Vials were sealed with rubber caps. The gaseous phase in the vials was removed using vacuum and then was replaced with a gas mixture of methane or propylene and oxygen at a 1:1, v/v ratio. Oxidation of other gaseous n-alkanes and n-alkanes was examined as described above. For liquid substrates, 10 μl of substrate was used directly. Vials were then incubated at 30° C. on a rotary shaker at 200 RPM.
It has been reported that the oxidation of methane by cell suspensions of methane-utilizing bacteria was inhibited by various metal-binding or metal-chelating agents (Patel et al., J. Bacteriol. 126: 1017-1019 (1976)). […] (CRL-15, NRRL B-11,202) was examined.

[2] = tested on: purified secondary alcohol dehydrogenase (SADH) from Pseudomonas sp. ATCC 21439; assay: Effect of metal-chelating agents and thio reagents on purified SADH; conditions: final concentration of 1 mM; measured spectrofluorometrically
Experimental: Secondary alcohol dehydrogenase (SADH) from an obligate methanol utilizer, Pseudomonas sp. ATCC 21439 was purified as follows. […] 0.05 M sodium phosphate buffer, pH 7.0 with 0.5 mM dithiothretol (buffer A) and were disrupted sonically (5×1 min.). The crude extract was separated by centrifugation. The crude extract was heat-treated at 50° C. in a water bath for 10 minutes. The resulting precipitate was removed by centrifugation. To the supernatant solution, 25 ml of protamine sulfate solution (2% solution in 0.1 M Tris base) was added dropwise with continuous stirring. After standing for 30 minutes, the extract was centrifuged. The supernatant solution was fractionated with solid ammonium sulfate. […] This DEAE-cellulose eluate was concentrated by ammonium sulfate fractionation. Material precipitating between 30 and 50% ammonium sulfate saturation was collected by centrifugation and dialyzed overnight against A. This fraction was further washed and filtered through an Amicon unit with XM 50 membrane. The concentrated fraction (6 ml) inside the Amicon unit was applied to an Affi-Gel Blue column (0.8 cm×18 cm) which had been equilibrated with buffer A for affinity chromatography. The column was washed overnight with buffer A (0.18 ml./min.) and then was eluted with buffer A containing 5 mM NAD. Each 1 ml. fraction was collected.
The purified secondary alcohol dehydrogenase enzyme (SADH) may be used directly for converting C3 -C6 secondary alcohols to the corresponding methyl ketones by the procedures described above; however, a source of NAD^+ must be added to the reaction medium. One can determine the NAD-linked secondary alcohol dehydrogenase activity with a fluorescence spectrophotometer (Perkin Elmer, Model MPF 44A) by following the formation of reduced NAD (Ex 340 nm, Em 460 nm). The assay system (3 ml.) will typically contain: sodium phosphate buffer pH 7.0, 150 μmol; NAD 1.0 μmol; a given amount of enzyme preparation; and 20 μmol secondary alcohol. The reaction is started by the addition of secondary alcohol. One unit of SADH enzyme activity represents the reduction of one nmole NAD per minute.
The effect of metal-chelating agents and chioreagents on the activity of the purified SADH enzyme were studied. […] The possibility of ethanol or n-propanol as an inhibitor was studied.

[3] = tested on: purified secondary alcohol dehydrogenase from Pichia sp. NRRL Y-11,328; assay: Inhibitors of purified yeast SADH; conditions: primary alcohols tested at 10^-3 M
Experimental: Large scale cultures of Pichia sp. NRRL Y-11,328 were grown with aeration at 30° C. in a 14-liter New Brunswick f fermentor in a mineral salt medium containing methanol (0.4%, v/v) as the sole carbon source. The cells (200 g., wet weight) were suspended in […] sodium phosphate buffer, pH 7.0, containing 1 mM dithiothreitol (buffer A), and crude extracts were prepared as described previously. To the crude extracts, 18 ml. of protamine sulfate solution [2% solution in 0.1 M tris (hydroxymethyl) aminomethane (tris) base] was added dropwise with continuous stirring. After standing for 30 min., the extracts were centrifuged at 20,000×g. for 60 min. The supernatant solution was fractionated with solid ammonium sulfate. Extracts were brought to 50% of saturation with respect to ammonium sulfate by addition of 313 g. of the salt per liter of extract. Precipitated proteins was removed by centrifugation, and 137 g. of ammonium sulfate was added per liter of the supernatant liquid to bring it to 70% of saturation. Material precipitating between 50 and 70% of saturation was collected by centrifugation and dissolved in buffer A. This preparation was dialyzed overnight against buffer A, and the dialyzed material was applied to a DEAE-cellulose column (5×40 cm) that had been equilibrated with buffer A. The sample was washed with 200 ml. of buffer A and eluted with 2 liters of buffer A that contained NaCl in a linear gradient running from a concentration of 0 to 0.5 M. Fractions of 15 ml. were collected. Fractions containing secondary alcohol dehydrogenase activity were pooled and were termed DEAE-cellulose eluate. The DEAE-cellulose eluate was concentrated by ammonium sulfate fractionation.
Secondary alcohol dehydrogenase activity was measured spectrophotometrically at 340 nm with a NAD^+ as an electron acceptor. The reaction mixture, in a total 3.0 ml., contained 50 mM phosphate buffer, pH 8,0, 5 μ moles NAD^+, crude extracts, and substrate. The reactions were started by addition of 100 µl of 0.1 M substrate and the rate of NAD^+ reduction was measured. Protein concentration was determined by the method of Lowry et al.
Various primary alcohols not oxidized by secondary alcohol dehydrogenase were tested as potential inhibitors of enzyme activity.

[4] = tested on: cell-free particulate fractions derived from the methylotrophic microorganisms; assay: Inhibition of conversion of C3 -C6 n-alkanes to sec. alcohols; conditions: oxygen and NADH present
From the text: The conditions for preparing the cell suspensions or the cell-free particulate fractions from methane-grown methylotroph microorganisms is the same as described above.

[5] = tested on: P(40) particulate fraction of Methylosinus sp. (CRL-15, NRRL B-11,202); assay: Effect of metals on propylene epoxidation and methane hydroxylation; conditions: metal 10^-3 M, P(40) fraction
Experimental: as §1
as §2, with “directly.” for “directly. Vials were then incubated at 30° C. on a rotary shaker at 200 RPM.”
Since the methane mono-oxygenase from methane-utlizing bacteria is a copper or iron-containing protein (Tonge et al., J. Biochem., 161: 333-344 (1977)), we have examined the effect of copper and iron salts on the oxidation of methane and propylene by the P(40) particulate fraction of Methylosinus sp. (CRL-15, NRRL B-11,202). The rate of hydroxylation of methane to methanol and epoxidation of propylene to propylene oxide was increased twofold in the presence of added copper salts (Table XII).

[6] = tested on: purified secondary alcohol dehydrogenase from Pichia sp. NRRL Y-11,328; assay: Substrate specificity, electron acceptor and stoichiometry of purified yeast SADH
[7] = tested on: cell-free soluble extracts of C1 -utilizing microbes (secondary alcohol dehydrogenase); assay: Cofactor requirement of cell-free SADH systems
Experimental: Catalytic activity was also assayed by fluorescence spectrophotometry.

With `c1cnc2c(c1)ccc1cccnc12` [1,10-Phenanthroline] the “% Inhibition, Methane-Hydroxylating Activity” value [1] was 90%, the “% Inhibition, Propylene-Epoxidizing Activity” value [1] was 93% and the “% inhibition of SADH activity” value [2] was 95%. For the same compound, the “inhibition of secondary alcohol dehydrogenase activity” value [3] was “strongly inhibited” and the “inhibition of conversion of n-alkanes to sec. alcohols” value (“inhibition of conversion of n-alkanes” below) [4] was “inhibited”.

For `Oc1cccc2cccnc12` [8-Hydroxyquinoline], the “% Inhibition, Methane-Hydroxylating Activity” value [1] was 80%, the “% Inhibition, Propylene-Epoxidizing Activity” value [1] was 75% and the “inhibition of conversion of n-alkanes” value [4] was “inhibited”.

For `O=S(=O)([O-])[O-].[Cu+2]` [Cupric Sulfate], the “Methane-Oxidizing Activity” value ([5]; control 4.0) was 7.1 μmoles/hr/mg protein, the “Propylene-Oxidizing Activity” value ([5]; control […]) was 9.0 μmoles/hr/mg protein and the “inhibition of secondary alcohol dehydrogenase activity” value [3] was “inhibited”.

In the case of `Cc1cc2nc3c(=O)[nH]c(=O)nc-3n(C[C@H](O)[C@H](O)[C@H](O)COP(=O)(O)OP(=O)(O)OC[C@H]3O[C@@H](n4cnc5c(N)ncnc54)[C@H](O)[C@@H]3O)c2cc1C` [FAD, flavin adenine dinucleotide], the “electron acceptor / carrier” value [6] is reported as “could not act as electron carrier” and the “effectiveness as cofactor for oxidation of secondary alcohols” value (shortened to “effectiveness as cofactor for oxidation”) [7] is reported as “not effective”.

For `c1c[nH]cn1` [Imidazole], the “inhibition of secondary alcohol dehydrogenase activity” value [3] was “strongly inhibited”.

In the case of `NC(=O)C1=CN([C@@H]2O[C@H](COP(=O)(O)OP(=O)(O)OC[C@H]3O[C@@H](n4cnc5c(N)ncnc54)[C@H](OP(=O)(O)O)[C@@H]3O)[C@@H](O)[C@H]2O)C=CC1` [NAD(P)H], the “effectiveness as cofactor for oxidation” value [7] is reported as “not effective”.

For `NC(=O)c1ccc[n+]([C@@H]2O[C@H](COP(=O)([O-])OP(=O)(O)OC[C@H]3O[C@@H](n4cnc5c(N)ncnc54)[C@H](O)[C@@H]3O)[C@@H](O)[C@H]2O)c1` [NAD, Nicotinamide adenine dinucleotide], the “electron acceptor / carrier” value [6] was “required” and the “effectiveness as cofactor for oxidation” value [7] was “requirement; also recorded: required”.

`NC(=O)c1ccc[n+]([C@@H]2O[C@H](COP(=O)([O-])OP(=O)(O)OC[C@H]3O[C@@H](n4cnc5c(N)ncnc54)[C@H](OP(=O)(O)O)[C@@H]3O)[C@@H](O)[C@H]2O)c1` [NADP] was tested, and the “electron acceptor / carrier” value [6] was “could not act as electron carrier” and the “effectiveness as cofactor for oxidation” value [7] was “not effective”.

With `NNC(N)=S` [Thiosemicarbazide] the “% Inhibition, Methane-Hydroxylating Activity” value [1] was 100%, the “% Inhibition, Propylene-Epoxidizing Activity” value [1] was 97% and the “inhibition of conversion of n-alkanes” value [4] was “inhibited”.

`NC(N)=S` [Thiourea] was tested, and the “% Inhibition, Methane-Hydroxylating Activity” value [1] was 98%, the “% Inhibition, Propylene-Epoxidizing Activity” value [1] was 98% and the “% inhibition of SADH activity” value [2] was 0%. The “inhibition of conversion of n-alkanes” value [4] was “inhibited”.

For `O=C1C(Cl)=CC(=Nc2ccc(O)cc2)C=C1Cl` [dichlorophenol indophenol], the “electron acceptor / carrier” value [6] was “could not act as electron carrier” and the “effectiveness as cofactor for oxidation” value [7] was “not effective”.

In the case of `N[C@@H](CCC(=O)N[C@@H](CS)C(=O)NCC(=O)O)C(=O)O` [glutathione], the “inhibition of secondary alcohol dehydrogenase activity” value [3] is reported as “strongly inhibited” and the “effectiveness as cofactor for oxidation” value [7] is reported as “not effective”.

For `N#C[S][Hg][S]C#N` [mercuric thiocyanate], the “inhibition of secondary alcohol dehydrogenase activity” value [3] was “inhibited”.

In the case of `O=C(O)c1cc[c]([Hg+])cc1.[OH-]` [p-hydroxymercuribenzoate], the “% inhibition of SADH activity” value [2] is reported as 100% and the “inhibition of secondary alcohol dehydrogenase activity” value [3] is reported as “strongly inhibited”.

`C[n+]1c2ccccc2nc2ccccc21` [phenazine methosulfate] was tested, and the “electron acceptor / carrier” value [6] was “could not act as electron carrier” and the “effectiveness as cofactor for oxidation” value [7] was “not effective”.

`O=[N+]([O-])[O-].[Ag+]` [silver nitrate] was tested, and the “inhibition of secondary alcohol dehydrogenase activity” value [3] was “inhibited”.

For `c1ccc(-c2ccccn2)nc1` [α,α-Bipyridyl], the “% Inhibition, Methane-Hydroxylating Activity” value [1] was 99%, the “% Inhibition, Propylene-Epoxidizing Activity” value [1] was 98% and the “% inhibition of SADH activity” value [2] was 70%. For the same compound, the “inhibition of conversion of n-alkanes” value [4] was “inhibited”.
